Laboratory results from ChEMBL document CHEMBL4371065, “Design and synthesis of biaryloxazolidinone derivatives containing a rhodanine or thiohydantoin moiety as novel antibacterial agents against Gram-positive bacteria” (Bioorg Med Chem Lett, 2019).
In brackets after ≈: the same amount, converted by molar mass.

How the values were obtained:
[1] = tested on: Staphylococcus aureus; test: Antibacterial activity against methicillin-resistant Staphylococcus aureus by broth liquid microdilution method; format: functional
[2] = tested on: Enterococcus faecalis; test: Antibacterial activity against linezolid-resistant Enterococcus faecalis by broth liquid microdilution method; format: functional
[3] = tested on: Enterococcus faecium; test: Antibacterial activity against vancomycin-resistant Enterococcus faecium by broth liquid microdilution method; format: functional
[4] = tested on: Staphylococcus aureus; test: Antibacterial activity against Staphylococcus aureus ATCC 29213 by broth liquid microdilution method; format: functional
[5] = tested on: Staphylococcus aureus; test: Antibacterial activity against methicillin-sensitive Staphylococcus aureus by broth liquid microdilution method; format: functional
[6] = tested on: Staphylococcus aureus; test: Antibacterial activity against clinical isolates of methicillin-resistant Staphylococcus aureus by broth liquid microdilution method; format: functional
[7] = tested on: Enterococcus faecalis; test: Potency index, ratio of linezolid MIC to compound MIC for clinical isolates of linezolid-resistant Enterococcus faecalis; format: functional
[8] = tested on: HepG2; test: Cytotoxicity against human HepG2 cells after 48 hrs by MTT assay; format: cell-based; conditions: HepG2, 48 h
[9] = target: T1, MAO-A (Homo sapiens, UniProt P21397); test: Inhibition of recombinant human full length N-terminal FLAG-tagged MAO-A expressed in sf9 cells at 30 uM preincubated for 15 mins followed by substrate addition and measured after 60 mins by luminescence assay relative to control
T1 sequence (P21397 whole entry): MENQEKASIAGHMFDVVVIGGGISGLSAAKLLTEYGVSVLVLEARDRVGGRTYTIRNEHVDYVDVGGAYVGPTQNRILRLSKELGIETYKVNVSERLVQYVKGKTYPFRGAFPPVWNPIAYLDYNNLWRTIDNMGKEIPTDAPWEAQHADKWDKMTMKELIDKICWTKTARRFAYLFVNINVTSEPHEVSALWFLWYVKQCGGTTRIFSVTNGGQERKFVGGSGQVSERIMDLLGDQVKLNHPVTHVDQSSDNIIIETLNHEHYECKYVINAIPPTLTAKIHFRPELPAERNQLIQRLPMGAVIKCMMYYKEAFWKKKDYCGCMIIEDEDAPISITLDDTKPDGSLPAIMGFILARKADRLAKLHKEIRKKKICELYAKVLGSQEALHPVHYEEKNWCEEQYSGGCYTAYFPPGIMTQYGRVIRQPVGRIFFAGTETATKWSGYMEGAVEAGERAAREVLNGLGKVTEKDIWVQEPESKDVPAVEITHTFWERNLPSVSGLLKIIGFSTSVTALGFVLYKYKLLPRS

[10] = tested on: Enterococcus faecium; test: Antibacterial activity against clinical isolates of vancomycin-resistant Enterococcus faecium by broth liquid microdilution method; format: functional
[11] = tested on: Staphylococcus aureus; test: Antibacterial activity against clinical isolates of methicillin-sensitive Staphylococcus aureus by broth liquid microdilution method; format: functional
[12] = tested on: Enterococcus faecalis; test: Antibacterial activity against clinical isolates of linezolid-resistant Enterococcus faecalis by broth liquid microdilution method; format: functional
[13] = tested on: Enterococcus faecalis; test: Potency index, ratio of radezolid MIC to compound MIC for linezolid-resistant Enterococcus faecalis; format: functional
[14] = tested on: Enterococcus faecium; test: Potency index, ratio of radezolid MIC to compound MIC for vancomycin-resistant Enterococcus faecium; format: functional
[15] = tested on: Staphylococcus aureus; test: Potency index, ratio of radezolid MIC to compound MIC for Staphylococcus aureus ATCC 29213; format: functional
[16] = tested on: Staphylococcus aureus; test: Potency index, ratio of radezolid MIC to compound MIC for methicillin-sensitive Staphylococcus aureus; format: functional

Row | Structure (SMILES) | MIC [1] [mg/L] | MIC [2] [mg/L] | MIC [3] [mg/L] | MIC [4] [mg/L] | MIC [5] [mg/L] | MIC [6] [mg/L] | Ratio [7] | IC50 [8] [µM] | inhibition at 1 h, 30 µM [9] [%] | MIC [10] [mg/L] | MIC [11] [mg/L] | MIC [12] [mg/L] | Ratio [13] | Ratio [14] | Ratio [15] | Ratio [16]
1 | CC(=O)NC[C@H]1CN(c2ccc(-c3ccc(/C=C4\SC(=S)N(CC(=O)O)C4=O)cc3)c(F)c2)C(=O)O1 | 1 (≈ 1.89 µM) | 1 (≈ 1.89 µM) | 1 (≈ 1.89 µM) | 1 (≈ 1.89 µM) | 1 (≈ 1.89 µM) |  |  |  |  |  |  |  |  |  |  | 
2 | CC(=O)NC[C@H]1CN(c2ccc(-c3ccc(/C=C4\SC(=S)N(C(C)C(=O)O)C4=O)cc3)c(F)c2)C(=O)O1 (stereo partly specified) | 1 (≈ 1.84 µM) | 1 (≈ 1.84 µM) | 1 (≈ 1.84 µM) | 1 (≈ 1.84 µM) | 1 (≈ 1.84 µM) |  |  |  |  |  |  |  |  |  |  | 
3 | CC(=O)NC[C@H]1CN(c2ccc(-c3ccc(/C=C4\SC(=S)N(CCCN5CCCCC5)C4=O)cc3)c(F)c2)C(=O)O1 | 1 (≈ 1.68 µM) | 1 (≈ 1.68 µM) | 1 (≈ 1.68 µM) | 1 (≈ 1.68 µM) | 1 (≈ 1.68 µM) |  |  |  |  |  |  |  |  |  |  | 
4 | CCN(CC)CCCN1C(=O)/C(=C/c2ccc(-c3ccc(N4C[C@H](CNC(C)=O)OC4=O)cc3F)cc2)NC1=S | 0.125 (≈ 0.22 µM) | 0.125 (≈ 0.22 µM) | 0.125 (≈ 0.22 µM) | 0.125 (≈ 0.22 µM) | 0.125 (≈ 0.22 µM) | 0.125 to 0.5 (≈ 0.22 to 0.881 µM) | 64 | 91 | 98 | 0.25 to 0.5 (≈ 0.44 to 0.881 µM) | 0.125 to 0.25 (≈ 0.22 to 0.44 µM) | 0.125 to 0.25 (≈ 0.22 to 0.44 µM) |  |  |  | 
5 | CCOC(=O)CN1C(=O)/C(=C/c2ccc(-c3ccc(N4C[C@H](CNC(C)=O)OC4=O)cc3F)cc2)SC1=S | 1 (≈ 1.79 µM) | 1 (≈ 1.79 µM) | 1 (≈ 1.79 µM) | 1 (≈ 1.79 µM) | 1 (≈ 1.79 µM) |  |  |  |  |  |  |  |  |  |  | 
6 | CC(=O)NC[C@H]1CN(c2ccc(-c3ccc(/C=C4\NC(=S)N(CCCN5CCOCC5)C4=O)cc3)c(F)c2)C(=O)O1 | 2 (≈ 3.44 µM) | 2 (≈ 3.44 µM) | 2 (≈ 3.44 µM) | 2 (≈ 3.44 µM) | 2 (≈ 3.44 µM) |  |  |  |  |  |  |  |  |  |  | 
7 | CC(=O)NC[C@H]1CN(c2ccc(-c3ccc(/C=C4\NC(=S)N(CCCN5CCCCC5)C4=O)cc3)c(F)c2)C(=O)O1 | 1 (≈ 1.73 µM) | 1 (≈ 1.73 µM) | 1 (≈ 1.73 µM) | 1 (≈ 1.73 µM) | 1 (≈ 1.73 µM) |  |  |  |  |  |  |  |  |  |  | 
8 | CC(=O)NC[C@H]1CN(c2ccc(-c3ccc(/C=C4\SC(=S)N(C)C4=O)cc3)c(F)c2)C(=O)O1 | 0.25 (≈ 0.515 µM) | 0.25 (≈ 0.515 µM) | 0.25 (≈ 0.515 µM) | 0.25 (≈ 0.515 µM) | 0.25 (≈ 0.515 µM) |  |  |  |  |  |  |  |  |  |  | 
9 | CC(=O)NC[C@H]1CN(c2ccc(-c3ccc(/C=C4\SC(=S)N(C(C(=O)O)c5ccccc5)C4=O)cc3)c(F)c2)C(=O)O1 (stereo partly specified) | 1 (≈ 1.65 µM) | 1 (≈ 1.65 µM) | 1 (≈ 1.65 µM) | 1 (≈ 1.65 µM) | 1 (≈ 1.65 µM) |  |  |  |  |  |  |  |  |  |  | 
10 | CC(=O)NC[C@H]1CN(c2ccc(-c3ccc(/C=C4\SC(=S)NC4=O)cc3)c(F)c2)C(=O)O1 | 0.125 (≈ 0.265 µM) | 0.125 (≈ 0.265 µM) | 0.125 (≈ 0.265 µM) | 0.125 (≈ 0.265 µM) | 0.125 (≈ 0.265 µM) |  |  | 63.9 | 99 | 1 to 2 (≈ 2.12 to 4.24 µM) | 1 to 2 (≈ 2.12 to 4.24 µM) | 1 to 2 (≈ 2.12 to 4.24 µM) | 4 | 4 | 4 | 4
11 | CCN(CC)CCCN1C(=O)/C(=C/c2ccc(-c3ccc(N4C[C@H](CNC(C)=O)OC4=O)cc3F)cc2)SC1=S | 0.5 (≈ 0.855 µM) | 0.5 (≈ 0.855 µM) | 0.5 (≈ 0.855 µM) | 0.5 (≈ 0.855 µM) | 0.5 (≈ 0.855 µM) |  |  |  |  |  |  |  |  |  |  | 
12 | CCN1C(=O)/C(=C/c2ccc(-c3ccc(N4C[C@H](CNC(C)=O)OC4=O)cc3F)cc2)SC1=S | 0.25 (≈ 0.5 µM) | 0.5 (≈ 1 µM) | 0.5 (≈ 1 µM) | 0.25 (≈ 0.5 µM) | 0.25 (≈ 0.5 µM) |  |  |  |  |  |  |  |  |  |  | 
13 | CCN1C(=O)/C(=C/c2ccc(-c3ccc(N4C[C@H](CNC(C)=O)OC4=O)cc3F)cc2)NC1=S | 0.25 (≈ 0.518 µM) | 0.25 (≈ 0.518 µM) | 0.25 (≈ 0.518 µM) | 0.25 (≈ 0.518 µM) | 0.25 (≈ 0.518 µM) |  |  |  |  |  |  |  |  |  |  | 
14 | CCCN1C(=O)/C(=C/c2ccc(-c3ccc(N4C[C@H](CNC(C)=O)OC4=O)cc3F)cc2)SC1=S | 2 (≈ 3.89 µM) | 2 (≈ 3.89 µM) | 2 (≈ 3.89 µM) | 2 (≈ 3.89 µM) | 2 (≈ 3.89 µM) |  |  |  |  |  |  |  |  |  |  | 
15 | CCOC(=O)CN1C(=O)/C(=C/c2ccc(-c3ccc(N4C[C@H](CNC(C)=O)OC4=O)cc3F)cc2)NC1=S | 1 (≈ 1.85 µM) | 1 (≈ 1.85 µM) | 1 (≈ 1.85 µM) | 1 (≈ 1.85 µM) | 1 (≈ 1.85 µM) |  |  |  |  |  |  |  |  |  |  | 
16 | CC(=O)NC[C@H]1CN(c2ccc(-c3ccc(/C=C4\NC(=S)N(C(C)C)C4=O)cc3)c(F)c2)C(=O)O1 | 1 (≈ 2.01 µM) | 0.5 (≈ 1.01 µM) | 0.5 (≈ 1.01 µM) | 1 (≈ 2.01 µM) | 1 (≈ 2.01 µM) |  |  |  |  |  |  |  |  |  |  | 
17 | CC(=O)NC[C@H]1CN(c2ccc(-c3ccc(/C=C4\NC(=S)NC4=O)cc3)c(F)c2)C(=O)O1 | 0.125 (≈ 0.275 µM) | 0.125 (≈ 0.275 µM) | 0.125 (≈ 0.275 µM) | 0.125 (≈ 0.275 µM) | 0.125 (≈ 0.275 µM) |  |  | 61.7 | 99 | 0.25 to 0.5 (≈ 0.55 to 1.1 µM) | 0.5 to 1 (≈ 1.1 to 2.2 µM) | 0.25 to 0.5 (≈ 0.55 to 1.1 µM) |  |  |  | 
18 | CC(=O)NC[C@H]1CN(c2ccc(-c3ccc(/C=C4\NC(=S)N(C)C4=O)cc3)c(F)c2)C(=O)O1 | 0.5 (≈ 1.07 µM) | 0.5 (≈ 1.07 µM) | 0.5 (≈ 1.07 µM) | 0.5 (≈ 1.07 µM) | 0.5 (≈ 1.07 µM) |  |  |  |  |  |  |  |  |  |  | 
19 | CCCN1C(=O)/C(=C/c2ccc(-c3ccc(N4C[C@H](CNC(C)=O)OC4=O)cc3F)cc2)NC1=S | 2 (≈ 4.03 µM) | 2 (≈ 4.03 µM) | 2 (≈ 4.03 µM) | 2 (≈ 4.03 µM) | 2 (≈ 4.03 µM) |  |  |  |  |  |  |  |  |  |  | 
20 | CC(=O)NC[C@H]1CN(c2ccc(N3CCOCC3)c(F)c2)C(=O)O1 [LINEZOLID] | 1 (≈ 2.96 µM) | > 16 | 2 (≈ 5.93 µM) | 1 (≈ 2.96 µM) | 1 (≈ 2.96 µM) |  |  | > 25 | 76 | 1 to 4 (≈ 2.96 to 11.9 µM) | 1 to 4 (≈ 2.96 to 11.9 µM) | > 16 |  |  |  | 
21 | CC(=O)NC[C@H]1CN(c2ccc(-c3ccc(CNCc4cnn[nH]4)cc3)c(F)c2)C(=O)O1 [RADEZOLID] | 0.5 (≈ 1.14 µM) | 0.5 (≈ 1.14 µM) | 0.5 (≈ 1.14 µM) | 0.5 (≈ 1.14 µM) | 0.5 (≈ 1.14 µM) |  |  |  |  |  |  |  |  |  |  | 
